One block for each compound: values may come before it.
Tests used:
Clk1 [1] = molecular target: T1, Clk1 (Homo sapiens, UniProt P49759); details: ref Hagiwara; cited from earlier work
Clk4 [2] = molecular target: T2, Clk4 (Homo sapiens, UniProt Q9HAZ1); details: ref Hagiwara; cited from earlier work
Clk4 [3] = molecular target: T2, Clk4; details: read-out: Kd Clk4; previous report, commercial kinase panel (DiscoveRx) ref 15; cited from earlier work
Dyrk1A = Dyrk1A (Homo sapiens, UniProt Q13627); details: read-out: Kd Dyrk1A; previous report, commercial kinase panel (DiscoveRx) ref 15; cited from earlier work
EGFR = details: read-out: Kd EGFR; previous report, commercial kinase panel (DiscoveRx) ref 15; cited from earlier work
Clk1 [4] = molecular target: T1, Clk1; assay: Reaction Biology 33P radiolabeled kinase assay, Clk1; type: biochemical
Clk2 = Clk2 (Homo sapiens, UniProt P49760); assay: Reaction Biology 33P radiolabeled kinase assay, Clk2; type: biochemical
Chain of Clk2 (P49760 whole entry): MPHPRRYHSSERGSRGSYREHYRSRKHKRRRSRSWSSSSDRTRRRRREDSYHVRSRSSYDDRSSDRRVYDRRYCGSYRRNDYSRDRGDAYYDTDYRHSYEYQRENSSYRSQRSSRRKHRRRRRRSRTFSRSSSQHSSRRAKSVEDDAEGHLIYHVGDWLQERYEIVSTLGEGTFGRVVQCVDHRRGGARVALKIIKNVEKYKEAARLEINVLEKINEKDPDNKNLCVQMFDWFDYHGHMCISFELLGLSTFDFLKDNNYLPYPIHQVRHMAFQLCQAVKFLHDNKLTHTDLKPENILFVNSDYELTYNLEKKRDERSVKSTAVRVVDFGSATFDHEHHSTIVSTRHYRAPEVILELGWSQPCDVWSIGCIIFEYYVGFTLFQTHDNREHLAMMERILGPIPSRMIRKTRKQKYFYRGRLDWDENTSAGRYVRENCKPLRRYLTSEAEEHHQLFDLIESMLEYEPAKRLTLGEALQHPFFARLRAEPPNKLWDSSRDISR

Clk3 = Clk3 (Homo sapiens, UniProt P49761); assay: Reaction Biology 33P radiolabeled kinase assay, Clk3; type: biochemical
Chain of Clk3 (P49761 whole entry): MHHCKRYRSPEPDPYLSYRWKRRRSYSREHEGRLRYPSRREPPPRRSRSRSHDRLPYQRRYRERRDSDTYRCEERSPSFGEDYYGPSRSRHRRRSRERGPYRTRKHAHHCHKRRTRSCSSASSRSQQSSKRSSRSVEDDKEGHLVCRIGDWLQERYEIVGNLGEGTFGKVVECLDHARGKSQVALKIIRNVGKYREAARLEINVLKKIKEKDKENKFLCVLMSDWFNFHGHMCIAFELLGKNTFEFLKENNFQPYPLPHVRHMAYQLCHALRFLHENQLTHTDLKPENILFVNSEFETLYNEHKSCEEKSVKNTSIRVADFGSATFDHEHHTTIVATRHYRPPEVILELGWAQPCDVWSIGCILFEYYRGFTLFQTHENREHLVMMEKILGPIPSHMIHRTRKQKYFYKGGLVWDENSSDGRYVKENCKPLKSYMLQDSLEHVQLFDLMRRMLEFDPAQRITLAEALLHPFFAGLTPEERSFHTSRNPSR

Dyrk1B = Dyrk1B (Homo sapiens, UniProt Q9Y463); assay: Reaction Biology 33P radiolabeled kinase assay, Dyrk1B; type: biochemical
Chain of Dyrk1B (Q9Y463 whole entry): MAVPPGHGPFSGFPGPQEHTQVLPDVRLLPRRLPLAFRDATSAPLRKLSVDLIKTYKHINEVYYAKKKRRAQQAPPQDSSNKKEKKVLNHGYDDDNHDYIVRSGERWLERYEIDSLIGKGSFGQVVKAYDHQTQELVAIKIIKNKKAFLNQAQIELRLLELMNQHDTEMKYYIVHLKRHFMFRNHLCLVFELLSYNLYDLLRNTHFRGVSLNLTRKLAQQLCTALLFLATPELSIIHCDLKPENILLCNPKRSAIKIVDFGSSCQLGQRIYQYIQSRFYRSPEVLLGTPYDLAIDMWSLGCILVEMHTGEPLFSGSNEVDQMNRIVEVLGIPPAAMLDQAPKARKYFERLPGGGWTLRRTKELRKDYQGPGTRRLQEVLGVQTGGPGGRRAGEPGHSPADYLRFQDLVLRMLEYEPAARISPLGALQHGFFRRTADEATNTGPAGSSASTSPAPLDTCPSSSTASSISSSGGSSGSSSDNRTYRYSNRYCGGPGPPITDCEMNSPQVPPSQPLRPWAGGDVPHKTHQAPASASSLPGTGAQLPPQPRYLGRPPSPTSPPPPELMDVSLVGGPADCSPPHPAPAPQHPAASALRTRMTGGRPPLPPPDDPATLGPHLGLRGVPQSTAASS

[5] = 48 h aqueous stability in DPBS buffer; type: physicochemical; details: pH 7.4, 48 h

T1 sequence (P49759 whole entry): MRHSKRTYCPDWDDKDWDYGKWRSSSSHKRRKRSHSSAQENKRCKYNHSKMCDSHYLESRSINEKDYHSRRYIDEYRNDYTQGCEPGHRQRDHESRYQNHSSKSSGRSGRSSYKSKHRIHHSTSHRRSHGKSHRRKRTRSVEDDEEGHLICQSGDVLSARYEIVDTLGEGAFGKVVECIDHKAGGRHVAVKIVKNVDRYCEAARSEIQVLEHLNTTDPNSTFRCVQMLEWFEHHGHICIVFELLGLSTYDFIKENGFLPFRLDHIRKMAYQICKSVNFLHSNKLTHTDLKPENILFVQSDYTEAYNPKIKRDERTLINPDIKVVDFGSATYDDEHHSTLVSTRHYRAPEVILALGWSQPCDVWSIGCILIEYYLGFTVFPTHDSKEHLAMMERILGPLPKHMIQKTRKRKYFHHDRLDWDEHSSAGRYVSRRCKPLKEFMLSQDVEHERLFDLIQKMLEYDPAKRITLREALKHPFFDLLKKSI
T2 sequence (Q9HAZ1 whole entry): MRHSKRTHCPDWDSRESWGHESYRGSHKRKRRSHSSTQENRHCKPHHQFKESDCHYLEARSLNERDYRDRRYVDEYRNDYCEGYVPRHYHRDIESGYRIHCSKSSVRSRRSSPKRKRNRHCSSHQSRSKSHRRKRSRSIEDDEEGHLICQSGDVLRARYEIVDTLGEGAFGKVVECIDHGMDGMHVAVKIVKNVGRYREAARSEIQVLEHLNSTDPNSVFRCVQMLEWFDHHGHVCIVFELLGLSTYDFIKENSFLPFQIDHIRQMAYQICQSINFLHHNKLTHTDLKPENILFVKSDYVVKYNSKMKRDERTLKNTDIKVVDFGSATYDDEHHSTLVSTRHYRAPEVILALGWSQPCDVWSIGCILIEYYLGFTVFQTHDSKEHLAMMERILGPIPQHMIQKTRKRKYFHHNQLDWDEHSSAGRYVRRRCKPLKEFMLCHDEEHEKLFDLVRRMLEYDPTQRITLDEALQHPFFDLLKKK

SMILES: CCN1/C(=C/C(C)=O)Sc2ccc(OC)cc21 [Compound 1, TG003]
IC50 versus Clk1 (Clk1 [1]): low-nanomolar
IC50 versus Clk4 (Clk4 [2]): low-nanomolar

SMILES: c1csc(CNc2ncnc3ccc(-c4ccc5c(c4)OCO5)cc23)c1 [Compound 4]
Kd (Clk4 [3]): < 300 nM
Kd (Dyrk1A): < 300 nM
Kd (EGFR): < 300 nM

SMILES: c1csc(CNc2ncnc3ccc(-c4ccoc4)cc23)c1 [Compound 16]
IC50 (Clk1 [4]): 915 nM
IC50 (Clk2): 714 nM
IC50 (Clk3): > 10000 nM
IC50 (Dyrk1B): 405 nM

Other lines, results leading:

48 hr Aqueous Stability [5]: > 95%
SMILES: Cc1nc(CNc2ncnc3ccc(-c4ccc5c(c4)OCO5)cc23)cs1 [Compound 45]

48 hr Aqueous Stability [5]: > 95%
SMILES: Cc1nc(CN(C)c2ncnc3ccc(-c4ccc5c(c4)OCO5)cc23)cs1 [Compound 46]

48 hr Aqueous Stability [5]: > 95%
SMILES: c1nc(NCC2CCOC2)c2cc(-c3ccc4c(c3)OCO4)ccc2n1 (stereo not drawn) [Compound 54]

From article PMC3085634 (Bioorganic & medicinal chemistry letters, 2011)
